pIC50: −log10 of the molar value.
Assays:
[1] = target: cGMP-specific 3',5'-cyclic phosphodiesterase (Bos taurus, UniProt Q28156); experiment: Inhibition of bovine PDE5 after 24 hrs by time-resolved fluorescence resonance energy transfer assay
[2] = Selectivity ratio of CC50 for human MRC5 SV2 cells to IC50 for chloroquine-sensitive Plasmodium falciparum GHA strain; format: ADME, cell-based; conditions: read-out: Ratio CC50/IC50
Plasmodium falciparum [3] = experiment: Antiplasmodial activity against chloroquine-sensitive Plasmodium falciparum GHA infected in human erythrocytes after 72 hrs using malstat staining by spectrophotometry; format: functional, organism-based
[4] = Cytotoxicity against human MRC5 SV2 cells after 72 hrs using resazurin by fluorimetry; format: cell-based
[5] = Selectivity index, ratio of IC50 for chloroquine-sensitive Plasmodium falciparum GHA to IC50 for bovine PDE5
Plasmodium falciparum [6] = experiment: Antiplasmodial activity against chloroquine-sensitive Plasmodium falciparum K1 infected in human erythrocytes after 72 hrs using malstat staining by spectrophotometry; format: functional, organism-based; conditions: K1, 72 h
[7] = Selectivity index, ratio of IC50 for chloroquine-sensitive Plasmodium falciparum K1 to IC50 for bovine PDE5
[8] = target: cGMP-inhibited 3',5'-cyclic phosphodiesterase 3A (Homo sapiens) (UniProt Q14432); experiment: Inhibition of human recombinant PDE3A expressed in Sf9 cells at 10 uM after 30 mins by HTRF assay
cGMP-inhibited 3',5'-cyclic phosphodiesterase 3A (Homo sapiens), sequence (Q14432 whole entry): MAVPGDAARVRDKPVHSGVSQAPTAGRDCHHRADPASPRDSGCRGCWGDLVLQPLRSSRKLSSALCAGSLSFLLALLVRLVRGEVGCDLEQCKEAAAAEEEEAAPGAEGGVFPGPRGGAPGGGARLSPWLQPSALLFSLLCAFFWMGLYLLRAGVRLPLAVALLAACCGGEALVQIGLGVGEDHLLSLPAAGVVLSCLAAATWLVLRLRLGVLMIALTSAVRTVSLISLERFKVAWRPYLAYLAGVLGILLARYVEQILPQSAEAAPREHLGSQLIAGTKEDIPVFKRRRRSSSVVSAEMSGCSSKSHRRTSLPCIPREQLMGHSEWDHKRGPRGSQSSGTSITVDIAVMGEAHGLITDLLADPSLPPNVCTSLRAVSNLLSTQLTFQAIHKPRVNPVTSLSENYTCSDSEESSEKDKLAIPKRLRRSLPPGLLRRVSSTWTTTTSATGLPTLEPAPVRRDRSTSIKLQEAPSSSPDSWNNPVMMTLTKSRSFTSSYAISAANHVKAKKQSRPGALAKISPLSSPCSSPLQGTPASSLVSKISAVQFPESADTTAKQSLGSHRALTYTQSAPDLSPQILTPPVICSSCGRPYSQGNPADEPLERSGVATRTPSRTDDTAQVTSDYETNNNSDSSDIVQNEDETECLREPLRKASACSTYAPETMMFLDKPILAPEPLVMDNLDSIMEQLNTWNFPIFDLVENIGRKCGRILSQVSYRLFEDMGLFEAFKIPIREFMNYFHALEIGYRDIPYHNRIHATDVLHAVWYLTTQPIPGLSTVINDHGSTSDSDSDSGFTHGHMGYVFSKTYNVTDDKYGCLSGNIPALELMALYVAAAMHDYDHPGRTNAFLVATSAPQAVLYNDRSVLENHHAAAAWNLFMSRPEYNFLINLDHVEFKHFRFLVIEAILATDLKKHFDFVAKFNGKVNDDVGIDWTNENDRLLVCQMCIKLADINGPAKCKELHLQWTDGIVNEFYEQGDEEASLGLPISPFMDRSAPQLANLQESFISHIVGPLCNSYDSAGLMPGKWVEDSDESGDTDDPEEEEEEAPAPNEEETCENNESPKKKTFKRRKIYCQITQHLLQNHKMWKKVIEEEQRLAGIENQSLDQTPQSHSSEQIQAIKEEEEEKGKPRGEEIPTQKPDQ

Bos taurus = organism: Bos taurus; experiment: Inhibition of bovine PDE6 using [3H]5GMP at 10 uM after 60 mins by scintillation counting
[9] = target: cAMP and cAMP-inhibited cGMP 3',5'-cyclic phosphodiesterase 10A (Homo sapiens) (UniProt Q9Y233); experiment: Inhibition of human recombinant PDE10A1 expressed in Sf9 cells at 10 uM after 30 mins by HTRF assay
cAMP and cAMP-inhibited cGMP 3',5'-cyclic phosphodiesterase 10A (Homo sapiens), sequence (Q9Y233 whole entry): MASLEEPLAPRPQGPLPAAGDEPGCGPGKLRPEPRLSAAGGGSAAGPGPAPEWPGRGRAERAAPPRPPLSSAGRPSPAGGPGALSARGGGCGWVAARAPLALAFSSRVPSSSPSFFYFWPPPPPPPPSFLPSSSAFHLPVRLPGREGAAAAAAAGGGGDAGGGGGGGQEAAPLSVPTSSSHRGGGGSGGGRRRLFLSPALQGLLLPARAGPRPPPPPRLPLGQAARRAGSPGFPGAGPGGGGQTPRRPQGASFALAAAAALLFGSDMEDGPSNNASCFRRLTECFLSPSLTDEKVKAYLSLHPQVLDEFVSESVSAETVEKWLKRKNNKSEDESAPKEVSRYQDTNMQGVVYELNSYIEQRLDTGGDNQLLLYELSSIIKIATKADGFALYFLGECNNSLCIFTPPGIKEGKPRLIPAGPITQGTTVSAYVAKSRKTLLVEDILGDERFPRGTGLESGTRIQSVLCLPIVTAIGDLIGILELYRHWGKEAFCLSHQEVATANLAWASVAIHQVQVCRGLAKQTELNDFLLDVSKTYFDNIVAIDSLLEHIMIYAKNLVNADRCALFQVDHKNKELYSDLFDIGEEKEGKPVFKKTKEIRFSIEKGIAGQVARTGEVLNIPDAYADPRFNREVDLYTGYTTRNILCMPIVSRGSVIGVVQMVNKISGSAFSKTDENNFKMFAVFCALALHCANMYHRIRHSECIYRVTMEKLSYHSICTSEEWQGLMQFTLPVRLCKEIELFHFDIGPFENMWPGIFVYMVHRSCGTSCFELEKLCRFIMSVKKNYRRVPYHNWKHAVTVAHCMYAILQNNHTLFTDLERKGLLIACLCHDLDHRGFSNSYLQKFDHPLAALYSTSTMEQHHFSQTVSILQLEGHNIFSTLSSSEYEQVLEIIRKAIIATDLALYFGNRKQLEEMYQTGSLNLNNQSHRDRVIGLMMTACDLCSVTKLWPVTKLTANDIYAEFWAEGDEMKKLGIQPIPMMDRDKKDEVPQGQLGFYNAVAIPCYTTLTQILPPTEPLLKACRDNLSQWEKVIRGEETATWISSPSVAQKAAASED

[10] = target: Dual specificity calcium/calmodulin-dependent 3',5'-cyclic nucleotide phosphodiesterase 1B (Homo sapiens) (UniProt Q01064); experiment: Inhibition of human recombinant PDE1B expressed in Sf9 cells at 10 uM after 30 mins by HTRF assay
Dual specificity calcium/calmodulin-dependent 3',5'-cyclic nucleotide phosphodiesterase 1B (Homo sapiens), sequence (Q01064 whole entry): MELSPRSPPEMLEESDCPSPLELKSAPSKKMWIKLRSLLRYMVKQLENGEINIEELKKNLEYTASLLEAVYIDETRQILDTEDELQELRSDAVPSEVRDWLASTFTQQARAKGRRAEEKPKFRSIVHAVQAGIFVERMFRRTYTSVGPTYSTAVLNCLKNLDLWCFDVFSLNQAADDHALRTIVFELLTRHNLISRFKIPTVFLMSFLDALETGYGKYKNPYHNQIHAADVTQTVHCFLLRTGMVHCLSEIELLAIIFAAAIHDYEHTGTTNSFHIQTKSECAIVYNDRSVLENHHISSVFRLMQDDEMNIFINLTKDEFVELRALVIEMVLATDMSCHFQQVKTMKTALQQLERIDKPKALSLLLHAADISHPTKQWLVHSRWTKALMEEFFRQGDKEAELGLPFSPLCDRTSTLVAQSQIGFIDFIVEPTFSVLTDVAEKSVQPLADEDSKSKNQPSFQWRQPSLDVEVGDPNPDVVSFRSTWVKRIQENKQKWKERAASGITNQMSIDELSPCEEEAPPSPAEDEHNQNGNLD

[11] = target: Dual 3',5'-cyclic-AMP and -GMP phosphodiesterase 11A (Homo sapiens) (UniProt Q9HCR9); experiment: Inhibition of human recombinant PDE11A4 expressed in Sf9 cells at 10 uM after 30 mins by HTRF assay
Dual 3',5'-cyclic-AMP and -GMP phosphodiesterase 11A (Homo sapiens), sequence (Q9HCR9 whole entry, looked up): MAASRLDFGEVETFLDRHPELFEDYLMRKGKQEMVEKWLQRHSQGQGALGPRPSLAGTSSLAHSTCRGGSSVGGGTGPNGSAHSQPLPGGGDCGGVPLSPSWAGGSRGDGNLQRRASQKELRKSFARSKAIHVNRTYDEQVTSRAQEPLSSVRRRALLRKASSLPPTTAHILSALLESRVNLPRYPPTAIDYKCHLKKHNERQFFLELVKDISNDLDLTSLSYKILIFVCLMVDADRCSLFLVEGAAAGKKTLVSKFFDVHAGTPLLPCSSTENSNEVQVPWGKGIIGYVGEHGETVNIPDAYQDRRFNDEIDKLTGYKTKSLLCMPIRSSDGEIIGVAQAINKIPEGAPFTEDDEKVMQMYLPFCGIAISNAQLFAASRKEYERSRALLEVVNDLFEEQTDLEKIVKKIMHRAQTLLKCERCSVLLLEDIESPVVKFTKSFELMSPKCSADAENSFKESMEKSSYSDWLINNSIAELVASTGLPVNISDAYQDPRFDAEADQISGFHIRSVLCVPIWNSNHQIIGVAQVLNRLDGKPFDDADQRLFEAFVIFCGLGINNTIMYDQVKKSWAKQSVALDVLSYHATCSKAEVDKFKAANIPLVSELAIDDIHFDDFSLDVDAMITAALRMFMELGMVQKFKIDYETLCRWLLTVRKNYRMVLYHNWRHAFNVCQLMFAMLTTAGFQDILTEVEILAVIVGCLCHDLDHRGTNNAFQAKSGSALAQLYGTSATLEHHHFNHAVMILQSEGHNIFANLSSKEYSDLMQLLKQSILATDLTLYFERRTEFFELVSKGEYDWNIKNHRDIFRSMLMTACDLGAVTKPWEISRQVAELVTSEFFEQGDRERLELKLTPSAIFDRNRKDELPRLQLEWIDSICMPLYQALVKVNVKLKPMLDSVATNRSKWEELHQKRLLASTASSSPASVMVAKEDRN

[12] = target: cGMP-specific 3',5'-cyclic phosphodiesterase (Homo sapiens) (UniProt O76074); conditions: 10 uM
Description: Inhibition of human PDE5 using [3H]5GMP at 10 uM after 60 mins by scintillation counting

[13] = target: High affinity cAMP-specific and IBMX-insensitive 3',5'-cyclic phosphodiesterase 8A (Homo sapiens) (UniProt O60658); experiment: Inhibition of human recombinant PDE8A1 expressed in Sf9 cells at 10 uM after 30 mins by HTRF assay
High affinity cAMP-specific and IBMX-insensitive 3',5'-cyclic phosphodiesterase 8A (Homo sapiens), sequence (O60658 whole entry): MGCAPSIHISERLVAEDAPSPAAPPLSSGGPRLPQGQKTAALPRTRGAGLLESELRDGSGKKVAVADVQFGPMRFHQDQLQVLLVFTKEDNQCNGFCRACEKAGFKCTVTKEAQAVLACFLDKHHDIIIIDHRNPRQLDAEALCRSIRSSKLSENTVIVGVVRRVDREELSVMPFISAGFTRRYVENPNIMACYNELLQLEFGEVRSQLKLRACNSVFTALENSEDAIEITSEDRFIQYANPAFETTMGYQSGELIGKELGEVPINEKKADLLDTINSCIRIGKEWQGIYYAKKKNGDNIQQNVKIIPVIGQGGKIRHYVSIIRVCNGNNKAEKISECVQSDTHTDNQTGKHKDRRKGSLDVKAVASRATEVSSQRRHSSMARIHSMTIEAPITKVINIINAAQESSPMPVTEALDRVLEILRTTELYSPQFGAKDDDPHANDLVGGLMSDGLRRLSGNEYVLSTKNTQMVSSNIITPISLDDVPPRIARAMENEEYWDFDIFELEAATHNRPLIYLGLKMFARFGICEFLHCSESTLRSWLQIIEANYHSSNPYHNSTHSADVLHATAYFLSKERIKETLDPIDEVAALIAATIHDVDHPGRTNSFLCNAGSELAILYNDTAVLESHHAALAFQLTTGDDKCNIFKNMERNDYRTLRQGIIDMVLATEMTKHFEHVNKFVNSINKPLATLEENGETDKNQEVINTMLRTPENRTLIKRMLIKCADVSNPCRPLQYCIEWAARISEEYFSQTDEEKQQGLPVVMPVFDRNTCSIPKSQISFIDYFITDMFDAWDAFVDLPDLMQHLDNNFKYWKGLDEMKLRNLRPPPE

[14] = target: High affinity 3',5'-cyclic-AMP phosphodiesterase 7A (Homo sapiens) (UniProt Q13946); experiment: Inhibition of human recombinant PDE7A expressed in Sf9 cells at 10 uM after 30 mins by HTRF assay
High affinity 3',5'-cyclic-AMP phosphodiesterase 7A (Homo sapiens), sequence (Q13946 whole entry): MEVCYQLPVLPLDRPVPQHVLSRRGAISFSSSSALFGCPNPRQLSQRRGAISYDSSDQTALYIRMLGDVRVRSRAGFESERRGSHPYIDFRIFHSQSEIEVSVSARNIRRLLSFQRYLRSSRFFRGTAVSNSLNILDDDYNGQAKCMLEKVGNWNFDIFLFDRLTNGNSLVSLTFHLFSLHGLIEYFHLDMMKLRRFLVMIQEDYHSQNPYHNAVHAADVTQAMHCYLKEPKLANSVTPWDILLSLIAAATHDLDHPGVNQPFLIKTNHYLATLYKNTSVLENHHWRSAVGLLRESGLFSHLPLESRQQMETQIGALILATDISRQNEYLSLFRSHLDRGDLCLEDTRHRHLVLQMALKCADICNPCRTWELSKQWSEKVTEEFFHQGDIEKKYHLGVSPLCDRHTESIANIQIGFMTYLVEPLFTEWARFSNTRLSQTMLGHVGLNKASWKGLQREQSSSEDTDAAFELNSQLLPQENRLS

[15] = target: Phosphodiesterase 4 (Homo sapiens) (UniProt P27815+Q08499+Q07343+Q08493); experiment: Inhibition of human recombinant PDE4A1A expressed in Sf9 cells at 10 uM after 30 mins by HTRF assay
[16] = target: cGMP-dependent 3',5'-cyclic phosphodiesterase (Homo sapiens) (UniProt O00408); experiment: Inhibition of human recombinant PDE2A expressed in Sf9 cells at 10 uM after 30 mins by HTRF assay

Structure (SMILES)	pIC50 [1]	selectivity ratio [2]	pIC50 (Plasmodium falciparum [3])	CC50 at 72 h [4] [µM]	other results
Cn1ccnc1CN1CC[C@@H](N2CC(=O)N3[C@H](c4ccc5c(c4)OCO5)c4[nH]c5ccccc5c4C[C@@H]3C2=O)C1	9.00	50	6.10	50	Ratio IC50 [5]: 0.003
COc1ccc([C@@H]2c3[nH]c4ccccc4c3C[C@@H]3C(=O)N([C@@H]4CCN(Cc5nccn5C)C4)CC(=O)N23)cc1OC	5.25	37	–	37	pIC50 (Plasmodium falciparum [6]): 5.80; Ratio IC50 [7]: 3
O=C1[C@H]2Cc3c([nH]c4ccccc34)[C@@H](c3ccc4c(c3)OCO4)N2C(=O)CN1[C@@H]1CCN(CCOc2ccccc2)C1	–	11	6.15	11	–
O=C1[C@H]2Cc3c([nH]c4ccccc34)[C@@H](c3ccc4c(c3)OCO4)N2C(=O)CN1C1CCN(Cc2ccccc2)CC1	–	–	–	7	–
CN(C)C(=O)CN1CC[C@@H](N2CC(=O)N3[C@H](c4ccc5c(c4)OCO5)c4[nH]c5ccccc5c4C[C@@H]3C2=O)C1	8.52	> 32	5.70	> 32	–
COc1ccc([C@@H]2c3[nH]c4ccccc4c3C[C@@H]3C(=O)N([C@@H]4CCN(Cc5ccc6c(c5)OCO6)C4)CC(=O)N23)cc1OC	< 5.00	25	–	25	pIC50 (Plasmodium falciparum [6]): 6.02; Ratio IC50 [7]: > 10
COc1ccc([C@@H]2c3[nH]c4ccccc4c3C[C@@H]3C(=O)N([C@@H]4CCN(Cc5ccccc5)C4)CC(=O)N23)cc1OC	5.28	76	6.38	32	inhibition [8]: 1%; inhibition (Bos taurus): 18%; inhibition [9]: 0%; inhibition [10]: 0%; inhibition [11]: 30%; inhibition [12]: 48%; inhibition [13]: 3%; inhibition [14]: 0%; inhibition [15]: 1%; inhibition [16]: 0%; Ratio IC50 [5]: 12.4
O=C1[C@H]2Cc3c([nH]c4ccccc34)[C@@H](c3ccc(Cl)nc3)N2C(=O)CN1[C@@H]1CCN(Cc2ccccc2)C1	–	1	4.96	14	–
COc1ccc([C@@H]2c3[nH]c4ccccc4c3C[C@@H]3C(=O)N([C@@H]4CCN(Cc5ccccc5)C4)CC(=O)N23)cc1O	7.25	36	6.21	22	–
O=C1[C@H]2Cc3c([nH]c4ccccc34)[C@@H](c3ccc4nnnn4c3)N2C(=O)CN1[C@@H]1CCN(Cc2ccccc2)C1	–	3	5.15	21	–
CN(C)c1ccc(CN2CC[C@@H](N3CC(=O)N4[C@H](c5ccc6c(c5)OCO6)c5[nH]c6ccccc6c5C[C@@H]4C3=O)C2)cc1	–	< 1	5.15	< 1	–
COc1ccc([C@@H]2c3[nH]c4ccccc4c3C[C@@H]3C(=O)N([C@@H]4CCN(CCNC(=O)OC(C)(C)C)C4)CC(=O)N23)cc1OC	< 5.00	10	–	10	pIC50 (Plasmodium falciparum [6]): 6.13; Ratio IC50 [7]: > 13
O=C1[C@H]2Cc3c([nH]c4ccccc34)[C@@H](c3ccc4c(c3)OCO4)N2C(=O)CN1[C@@H]1CCN(CC2CCCCC2)C1	–	7	6.05	7	–
CN1CC(=O)N2[C@H](c3ccc4c(c3)OCO4)c3[nH]c4ccccc4c3C[C@@H]2C1=O	–	–	< 4.19	> 64	–
CC(C)(C)OC(=O)NCCN1CC[C@@H](N2CC(=O)N3[C@H](c4ccc5c(c4)OCO5)c4[nH]c5ccccc5c4C[C@@H]3C2=O)C1	9.00	154	6.66	154	Ratio IC50 [5]: 0.018
O=C1[C@H]2Cc3c([nH]c4ccccc34)[C@@H](c3ccc4c(c3)OCO4)N2C(=O)CN1[C@@H]1CCN(CC2CCCC2)C1	–	22	6.60	22	–
O=C1[C@H]2Cc3c([nH]c4ccccc34)[C@@H](c3ccc4c(c3)OCO4)N2C(=O)CN1[C@@H]1CCN(Cc2ccc3c(c2)OCO3)C1	8.15	78	6.28	78	Ratio IC50 [5]: 0.013
COc1cc([C@@H]2c3[nH]c4ccccc4c3C[C@@H]3C(=O)N([C@@H]4CCN(Cc5ccccc5)C4)CC(=O)N23)ccc1O	< 6.00	44	6.28	23	–
O=C1[C@H]2Cc3c([nH]c4ccccc34)[C@@H](c3ccc(OC(F)F)cc3)N2C(=O)CN1[C@@H]1CCN(Cc2ccccc2)C1	–	> 6	4.96	> 64	–
O=C1[C@H]2Cc3c([nH]c4ccccc34)[C@@H](c3ccc4c(c3)OCO4)N2C(=O)CN1[C@@H]1CCN(CCc2ccccc2)C1	–	1	5.28	1	–
O=C1[C@H]2Cc3c([nH]c4ccccc34)[C@@H](c3ccc4c(c3)OC(F)(F)O4)N2C(=O)CN1[C@@H]1CCN(Cc2ccccc2)C1	–	1	4.96	8	–
COc1ccc(CN2CC[C@@H](N3CC(=O)N4[C@H](c5ccc6c(c5)OCO6)c5[nH]c6ccccc6c5C[C@@H]4C3=O)C2)cc1	–	< 1	5.00	< 1	–
O=C1[C@H]2Cc3c([nH]c4ccccc34)[C@@H](c3ccc4c(c3)OCO4)N2C(=O)CN1[C@@H]1CCN(CCCCCO)C1	–	3	4.92	3	–
O=C1[C@H]2Cc3c([nH]c4ccccc34)[C@@H](c3ccc4c(c3)OCCO4)N2C(=O)CN1[C@@H]1CCN(Cc2ccccc2)C1	–	> 13	5.30	> 64	–
O=C1[C@H]2Cc3c([nH]c4ccccc34)[C@@H](c3ccc4c(c3)OCO4)N2C(=O)CN1[C@@H]1CCN(Cc2ccccc2)C1	8.30	20	–	10	Ratio IC50 [5]: 0.014
O=C1[C@H]2Cc3c([nH]c4ccccc34)[C@@H](c3ccc4nsnc4c3)N2C(=O)CN1[C@@H]1CCN(Cc2ccccc2)C1	7.55	50	6.22	30	–
O=C1[C@H]2Cc3c([nH]c4ccccc34)[C@@H](c3ccc4nonc4c3)N2C(=O)CN1[C@@H]1CCN(Cc2ccccc2)C1	–	> 10	5.22	> 64	–
COc1ccc([C@@H]2c3[nH]c4ccccc4c3C[C@@H]3C(=O)N(C)CC(=O)N23)cc1OC	< 5.00	> 64	< 4.19	> 64	–
O=C1[C@H]2Cc3c([nH]c4ccccc34)[C@@H](c3ccc4c(c3)OCO4)N2C(=O)CN1[C@@H]1CCN(Cc2ccccn2)C1	8.70	13	5.40	13	–
CCCCN1CC[C@@H](N2CC(=O)N3[C@H](c4ccc5c(c4)OCO5)c4[nH]c5ccccc5c4C[C@@H]3C2=O)C1	–	< 1	4.92	< 1	–

Reference: ChEMBL document CHEMBL2021782, “Drug-to-genome-to-drug, step 2: reversing selectivity in a series of antiplasmodial compounds” (J Med Chem, 2012)
